Measured values taken from PubChem BioAssay (NCI).
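GI50 = concentration required for 50% inhibition of growth. TGI is the concentration that stops growth completely.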

Experiments:
Assay in all cases: NCI tumour cell line growth inhibition, 384-well format; in the data active = GI50 below about 0.43 µM; inactive = the rest
HCC-2998 colon = tested on: HCC-2998 colon
BT-549 breast = tested on: BT-549 breast
HOP-92 NSCLC = tested on: HOP-92 NSCLC
OVCAR-8 ovarian = tested on: OVCAR-8 ovarian
OVCAR-4 ovarian = tested on: OVCAR-4 ovarian
786-0 renal = tested on: 786-0 renal
MDA-MB-468 breast = tested on: MDA-MB-468 breast
MOLT-4 leukemia = tested on: MOLT-4 leukemia
CAKI-1 renal = tested on: CAKI-1 renal
IGROV1 ovarian = tested on: IGROV1 ovarian
OVCAR-5 ovarian = tested on: OVCAR-5 ovarian
NCI-H322M lung = tested on: NCI-H322M lung
PC-3 prostate = tested on: PC-3 prostate
A498 renal = tested on: A498 renal
EKVX NSCLC = tested on: EKVX NSCLC
SK-MEL-28 melanoma = tested on: SK-MEL-28 melanoma
SK-OV-3 ovarian = tested on: SK-OV-3 ovarian
KM12 colon = tested on: KM12 colon
SR leukemia = tested on: SR leukemia
UACC-257 melanoma = tested on: UACC-257 melanoma
U251 glioblastoma = tested on: U251 glioblastoma
HCT-15 colon = tested on: HCT-15 colon
NCI-H460 NSCLC = tested on: NCI-H460 NSCLC
HS 578T breast = tested on: HS 578T breast
T-47D breast = tested on: T-47D breast
MCF7 breast = tested on: MCF7 breast
HL-60(TB) leukemia = tested on: HL-60(TB) leukemia
SN12C renal = tested on: SN12C renal
MALME-3M melanoma = tested on: MALME-3M melanoma
RXF 393 renal = tested on: RXF 393 renal
SF-268 CNS = tested on: SF-268 CNS
UACC-62 melanoma = tested on: UACC-62 melanoma
SW-620 colon = tested on: SW-620 colon
NCI-H23 lung = tested on: NCI-H23 lung
A549 NSCLC = tested on: A549 NSCLC
TK-10 renal = tested on: TK-10 renal
SF-539 CNS = tested on: SF-539 CNS
NCI/ADR-RES ovarian = tested on: NCI/ADR-RES ovarian
M14 melanoma = tested on: M14 melanoma
SK-MEL-2 melanoma = tested on: SK-MEL-2 melanoma
DU-145 prostate = tested on: DU-145 prostate
SF-295 CNS = tested on: SF-295 CNS
MDA-MB-231 breast = tested on: MDA-MB-231 breast
RPMI-8226 leukemia = tested on: RPMI-8226 leukemia
SK-MEL-5 melanoma = tested on: SK-MEL-5 melanoma
COLO 205 colon = tested on: COLO 205 colon
SNB-19 CNS = tested on: SNB-19 CNS
HT29 colon = tested on: HT29 colon
HOP-62 NSCLC = tested on: HOP-62 NSCLC
NCI-H522 lung = tested on: NCI-H522 lung
ACHN renal = tested on: ACHN renal
NCI-H226 lung = tested on: NCI-H226 lung
OVCAR-3 ovarian = tested on: OVCAR-3 ovarian
CCRF-CEM leukemia = tested on: CCRF-CEM leukemia
MDA-MB-435 melanoma = tested on: MDA-MB-435 melanoma

O=C(O)C(=O)CBr
> 100 µM: TGI (HCC-2998 colon) | TGI (BT-549 breast) | TGI (HOP-92 NSCLC) | TGI (OVCAR-8 ovarian) | TGI (OVCAR-4 ovarian) | TGI (786-0 renal) | TGI (MOLT-4 leukemia) | TGI (CAKI-1 renal) | TGI (IGROV1 ovarian) | TGI (OVCAR-5 ovarian) | TGI (NCI-H322M lung) | TGI (PC-3 prostate) | TGI (A498 renal) | TGI (EKVX NSCLC) | TGI (SK-MEL-28 melanoma) | TGI (SK-OV-3 ovarian) | TGI (KM12 colon) | TGI (SR leukemia) | TGI (UACC-257 melanoma) | TGI (U251 glioblastoma) | TGI (HCT-15 colon) | TGI (NCI-H460 NSCLC) | TGI (HS 578T breast) | TGI (T-47D breast) | TGI (MCF7 breast) | TGI (SN12C renal) | TGI (MALME-3M melanoma) | TGI (SF-268 CNS) | TGI (UACC-62 melanoma) | TGI (SW-620 colon) | TGI (NCI-H23 lung) | TGI (A549 NSCLC) | TGI (TK-10 renal) | TGI (SF-539 CNS) | TGI (NCI/ADR-RES ovarian) | TGI (M14 melanoma) | TGI (SK-MEL-2 melanoma) | TGI (DU-145 prostate) | TGI (SF-295 CNS) | TGI (MDA-MB-231 breast) | TGI (RPMI-8226 leukemia) | TGI (SK-MEL-5 melanoma) | TGI (COLO 205 colon) | TGI (SNB-19 CNS) | TGI (HT29 colon) | TGI (HOP-62 NSCLC) | TGI (ACHN renal) | TGI (NCI-H226 lung) | TGI (OVCAR-3 ovarian) | TGI (CCRF-CEM leukemia) | TGI (MDA-MB-435 melanoma)
57.1 µM: TGI (RXF 393 renal)
45.3 µM: TGI (HL-60(TB) leukemia)
47.8 µM: TGI (NCI-H522 lung)
inactive: GI50 (HCC-2998 colon) > 100 µM | GI50 (BT-549 breast) > 100 µM | GI50 (HOP-92 NSCLC) > 100 µM | GI50 (OVCAR-8 ovarian) > 100 µM | GI50 (OVCAR-4 ovarian) 32.3 µM | GI50 (786-0 renal) > 100 µM | GI50 (MDA-MB-468 breast) 24.7 µM | GI50 (MOLT-4 leukemia) > 100 µM | GI50 (CAKI-1 renal) > 100 µM | GI50 (IGROV1 ovarian) > 100 µM | GI50 (OVCAR-5 ovarian) > 100 µM | GI50 (NCI-H322M lung) > 100 µM | GI50 (PC-3 prostate) > 100 µM | GI50 (A498 renal) > 100 µM | GI50 (EKVX NSCLC) > 100 µM | GI50 (SK-MEL-28 melanoma) > 100 µM | GI50 (SK-OV-3 ovarian) > 100 µM | GI50 (KM12 colon) > 100 µM | GI50 (SR leukemia) > 100 µM | GI50 (UACC-257 melanoma) > 100 µM | GI50 (U251 glioblastoma) > 100 µM | GI50 (HCT-15 colon) > 100 µM | GI50 (NCI-H460 NSCLC) > 100 µM | GI50 (HS 578T breast) > 100 µM | GI50 (T-47D breast) > 100 µM | GI50 (MCF7 breast) > 100 µM | GI50 (HL-60(TB) leukemia) 23.9 µM | GI50 (SN12C renal) > 100 µM | GI50 (MALME-3M melanoma) > 100 µM | GI50 (RXF 393 renal) 22.5 µM | GI50 (SF-268 CNS) > 100 µM | GI50 (UACC-62 melanoma) > 100 µM | GI50 (SW-620 colon) > 100 µM | GI50 (NCI-H23 lung) 55.7 µM | GI50 (A549 NSCLC) > 100 µM | GI50 (TK-10 renal) > 100 µM | GI50 (SF-539 CNS) > 100 µM | GI50 (NCI/ADR-RES ovarian) > 100 µM | GI50 (M14 melanoma) > 100 µM | GI50 (SK-MEL-2 melanoma) > 100 µM | GI50 (DU-145 prostate) > 100 µM | GI50 (SF-295 CNS) > 100 µM | GI50 (MDA-MB-231 breast) > 100 µM | GI50 (RPMI-8226 leukemia) > 100 µM | GI50 (SK-MEL-5 melanoma) > 100 µM | GI50 (COLO 205 colon) > 100 µM | GI50 (SNB-19 CNS) > 100 µM | GI50 (HT29 colon) > 100 µM | GI50 (HOP-62 NSCLC) 34.7 µM | GI50 (NCI-H522 lung) 23.5 µM | GI50 (ACHN renal) > 100 µM | GI50 (NCI-H226 lung) > 100 µM | GI50 (OVCAR-3 ovarian) > 100 µM | GI50 (CCRF-CEM leukemia) 43.2 µM | GI50 (MDA-MB-435 melanoma) > 100 µM
56.8 µM: TGI (MDA-MB-468 breast)
